Change in vivo data for 8 molecules are collected here from US20060148858A1, “1, 2-Azole derivatives with hypoglycemic and hypolipidemic activity” (priority 2002, published 2006).

In the assay the test system is KKAY mice. The assay is described as follows: Plasma anti-arteriosclerosis index-enhancing action in mice (Test Example 2). Type of assay: in vivo. Conditions: Mus musculus, po, 96 h, 0.005% in powdery diet, four days, percent increase of (HDL cholesterol/total cholesterol)x100, non-treatment group taken as 100%.

Regarding `CCOc1nn(-c2ccc(C(F)(F)F)cn2)cc1CCCOc1cccc(CC(=O)O)c1` [Example 30, [3-(3-{3-ethoxy-1-[5-(trifluoromethyl)-2-pyridyl]-1H-pyrazol-4-yl}propoxy)phenyl]acetic acid], the change in vivo at 0.005 % in diet stood at 19%.

Regarding `CCOc1nn(-c2ccc(C(F)(F)F)cn2)cc1CCCOc1ccccc1CC(=O)O` [Example 31, (2-(3-{3-ethoxy-1-[5-(trifluoromethyl)-2-pyridyl]-1H-pyrazol-4-yl}propoxy)phenyl]acetic acid], the change in vivo at 0.005 % in diet is 16%.

Turning to `O=C(O)CCc1cc(OCCCc2cn(-c3ccc(C(F)(F)F)cn3)nc2C2CCCCC2)nn1-c1ccccc1` [Example 189, 3-[3-(3-{3-cyclohexyl-1-[5-(trifluoromethyl)-2-pyridyl]-1H-pyrazol-4-yl}propoxy)-1-phenyl-1H-pyrazol-5-yl]propionic acid], the change in vivo at 0.005 % in diet is 20%.

Regarding `CCC(CC)c1nn(-c2ccc(Cl)cn2)cc1CCCOc1c(CC(=O)O)cccc1OC` [Example 223, (2-{3-[1-(5-chloro-2-pyridyl)-3-(1-ethylpropyl)-1H-pyrazol-4-yl]propoxy}-3-methoxyphenyl)acetic acid], the change in vivo at 0.005 % in diet amounted to 12%.

Consider `COc1cccc(CC(=O)O)c1OCCCc1cn(-c2ccc(C(F)(F)F)nn2)nc1C(C)C` [Example 274, [2-(3-{3-isopropyl-1-[6-(trifluoromethyl)pyridazin-3-yl]-1H-pyrazol-4-yl}propoxy)-3-methoxyphenyl]acetic acid], for which the change in vivo at 0.005 % in diet was 11%.

Regarding `COc1ccc(CC(=O)O)cc1OCCCc1cn(-c2ccc(C(F)(F)F)cn2)nc1C1CCCCC1` [Example 304, [3-(3-{3-cyclohexyl-1-[5-(trifluoromethyl)-2-pyridinyl]-1H-pyrazol-4-yl}propoxy)-4-methoxyphenyl]acetic acid], the change in vivo at 0.005 % in diet stood at 13%.

`Cc1cccc(CC(=O)O)c1OCCCc1cn(-c2ccc(C(F)(F)F)cn2)nc1C1CCCCC1` [Example 316, [2-(3-{3-cyclohexyl-1-[5-(trifluoromethyl)-2-pyridinyl]-1H-pyrazol-4-yl}propoxy)-3-methylphenyl]acetic acid]: the change in vivo at 0.005 % in diet came out at 10%.

`CCC(CC)c1nn(-c2ccc(C(F)(F)F)nn2)cc1CCCOc1c(C)cccc1CC(=O)O` [Example 340, [2-(3-{3-(1-ethylpropyl)-1-[6-(trifluoromethyl)pyridazin-3-yl]-1H-pyrazol-4-yl}propoxy)-3-methylphenyl]acetic acid]: the change in vivo at 0.005 % in diet is 21%.
